Counter-ions that a name gives are not always drawn. Like-named read-outs stand apart in the source and are kept apart here.
How the values were obtained:
[1] = test system: presynaptic dopaminergic receptor (autoreceptor); assay: Spontaneous exploratory motor activity of rats, enantiomers of 3-PPP; type: in vivo, rat
Method: 1. Evidence for presynaptic dopaminergic receptor (autoreceptor) agonist activity of both enantiomers of 3-PPP. Both enantiomers of 3-PPP cause a dose-dependent decrease in spontaneous exploratory motor activity of rats. […] However, the (+)-enantiomer causes a decrease only after doses between 0.25 and 4 mg/kg s.c.

[2] = test system: dopaminergic receptors (presynaptic and postsynaptic); assay: Dopaminergic receptor profile of 3-PPP and its enantiomers (summary of tests); type: in vivo; settings: summary of enantiomer tests
Text: The two enantiomers of 3-PPP have now been tested separately.

[3] = test system: postsynaptic dopaminergic receptors; assay: Locomotor activity in reserpine-treated rats, enantiomers of 3-PPP; type: in vivo, rat
Text: 2. Evidence for postsynaptic dopaminergic receptor agonist activity of (+)-3-PPP.

dopa formation = assay: Dopa formation and dopamine metabolite levels in rats not pretreated with GBL or reserpine; type: in vivo, rat
[4] = test system: rat brain tyrosine hydroxylation; assay: In-vivo determination of rat brain tyrosine hydroxylation (Dopa formation after NSD 1015, reserpine-pretreated rats); settings: sc
Method: 2. In-vivo determination of rat brain tyrosine hydroxylation.
The compounds under evaluation were tested biochemically for central DA-receptor (pre- and/or postsynaptic) stimulating activity. The concept of this biochemical screening method is that a DA-receptor agonist will stimulate the receptor and through regulatory feedback systems effect a decline in tyrosine hydroxylase activity and thus a subsequent reduction in the synthesis rate for DA in the presynaptic neuron. Dopa formation, as determined after in-vivo inhibition of the aromatic L-amino acid decarboxylase with NSD 1015 (3-hydroxybenzyl-hydrazine hydrochloride), is taken as an indirect measure of DA synthesis rate.
Rats (150-300 g) pretreated with reserpine were given the compounds under evaluation. Gross behavioral observations (changes in motility, stereotypies etc.) were made in order to evaluate possible postsynaptic dopamine receptor activity. Subsequent administration of NSD 1015, decapitation, brain dissection (corpora striate and the limbic fore-brain), homogenization, centrifugation, ion-exchange chromatography and spectrofluorimetric measurements (all as described in detail by Wikstrom et al., in J. Med. Chem. 21, 864-867, 1978, and references cited therein), gave the actual Dopa levels. Several doses (n=4-6) were tested in order to obtain dose-response curves for each compound and brain area. The dose of a compound producing a half-maximal decrease in the Dopa level in the rat brain part was then estimated.

[5] = test system: central postsynaptic DA-receptor; assay: Locomotor activity in reserpine-pretreated rats, comparison of compound 4 with two known dopaminergic agonists; type: in vivo, rat; settings: for Motor activity: 0-60 min postinj.; for central postsynaptic DA-receptor stimulation / motor response: s.c.
Method: Rats (150-300 g) pretreated with reserpine (10 mg/ kg i.p., 6 h before) were given either phys. saline, compound 4 (100 μmol/kg), N-n-propyl-3-(3,4-dihydroxyphenyl)piperidine (100 μmol/kg) or apomorphine ([…]) subcutaneously and the locomotor activity (accumulated counts 0-60 min.) was quantified by means of Motron boxes (see under 4 above).

[6] = test system: postsynaptic dopaminergic receptor; assay: Antagonism of apomorphine-induced locomotor stimulation; type: in vivo, rat; settings: apomorphine 1 mg/kg s.c., means ± s.e.m., n=10
Method: 3. Evidence for postsynaptic dopminergic receptor antagonist activity of (-)-3-PPP.
The locomotor stimulating action of the dopamine receptor aqonist apomorphine is antagonized by (-)-3-PPP. […] Thus the postsynaptic receptor antagonist activity requires a larger dose than the presynaptic receptor agonist activity, which is evident after doses down to 0.25 mg/kg.
Further, (-)-3-PPP and racemic 3-PPP have been compared regarding antagonism of apomorphine-induced locomotor stimulation. Either form of 3-PPP was injected subcutaneously in a dose of 8 mg/kg 20 min and apomorphine in a dose of 1 mg/kg subcutaneously 5 min before placing the rats in the Motron for 30 min. Shown are the counts per 30 min., means± s.e.m. and number of experiments (n).

[7] = test system: postsynaptic DA receptors; assay: Antagonism of the reserpine-induced "neuroleptic syndrome" in the rat; type: in vivo; settings: 20 mg/kg s.c.
Text: 1. Antagonism of the reserpine-induced "neuroleptic syndrome" in the rat
Depletion of the monoamine stores with reserpine brings about a "neuroleptic syndrome" characterized by hypomotility, catalepsy, muscle rigidity, hunch-backed posture as well as a number of other central and peripheral signs of monoamine depletion. This syndrome can be reversed by the administration of drugs that stimulate postsynaptic DA receptors directly or indirectly, e.g. apomorphine, L-Dopa.
Rats (150-300 g) pretreated with reserpine (10 mg/kg i.p., 6 h before) were given compound 4 subcutaneously at different doses.

DA autoreceptors = assay: Effect on spontaneous locomotor activity in the rat; type: in vivo; settings: 0-15 min; haloperidol 0.02 mg/kg i.p. 25 min before + saline, n=5
Text: 4. Effect on spontaneous locomotor activity in the rat.
Untreated animals exposed to a new environment display an initial high motor activity which then gradually declines over a period of time. Administration of DA-receptor agonists (e.g. apomorphine) in doses where preferential autoreceptor stimulation is likely to occur, causes a depression of the spontaneous motility mentioned above, considered to be due to the DA autoreceptor-mediated impairment of central DA transmission.
Rats (150-300 g) were injected subcutaneously with several doses of compounds 4 and after 5 minutes they were individually placed in motility boxes ("M/P 40 Fc Electronic Motility Meter". Motron Products, Stockholm) and the motor activity (0-30 min.) was quantified. […] Moreover, there seems to be a correlation between the decrease in spontaneous locomotion and the degree of antagonism of the GBL-induced increase in DA synthesis (cf. 3 above) in the limbic areas of rat brain exerted by compound 4, the per cent decrease of motor activity being roughly 0.6 times the per cent reversal of GBL-induced increase in DA-synthesis rate.

[8] = limbic, inactive, read-out: ED50 Limbic (class symbol)
[9] = striatum, inactive, read-out: ED50 Striatum (class symbol)
[10] = reserpine-pretreated rats, Dopa level, limbic, read-out: ED50 Limbic
[11] = reserpine-pretreated rats, Dopa level, striatum, read-out: ED50 Striatum

| SMILES | ED50 [4, 10] [µmol/kg] | ED50 [4, 11] [µmol/kg] | further results |
| --- | --- | --- | --- |
| CCCN1CCCC(c2cccc(O)c2)C1 (single isomer, unassigned; (+)) [(+)-3-PPP, reference compound] | – | – | effect on locomotor activity ([1]; 8 mg/kg s.c.): no effect; increase of locomotor activity to % of control ([1]; 64 mg/kg s.c.): more than 200 % of control; decrease of locomotor activity to % of control ([1]; s.c., first 30 min): 30-40 % of control; activity on presynaptic and postsynaptic dopaminergic receptors [2]: dopaminergic receptor agonist by activating both the presynaptic and the postsynaptic receptors; effect of haloperidol on locomotor stimulation ([3]; haloperidol): blocked by haloperidol; stimulation of locomotor activity ([3]; reserpine-treated rats, (+)-form 0.25 to 64 mg/kg): marked stimulation of locomotor activity; dopa formation (dopa formation; 0.053 to 64 mg/kg, no pretreatment): decrease; levels of 3,4-dihydroxyphenyl acetic acid and homovanillic acid (dopa formation; matched to the changes in dopa formation): corresponding changes in the levels of the dopamine metabolites |
| Oc1cccc(C2CCNC2)c1 (centres unmarked) [1 OH H HBr, reference compound] | – | – | ED50 [4, 8]: > 90 µmol/kg; ED50 [4, 9]: > 90 µmol/kg |
| CCCN1CCCC(c2cccc(OC)c2)C1 (centres unmarked) [2 OCH3 n-C3 H7 HBr, N-Propyl-3-(3-methoxyphenyl)piperidine hydrobromide, reference compound] | – | – | ED50 [4, 8]: > 180 µmol/kg; ED50 [4, 9]: > 180 µmol/kg |
| CN1CCc2cccc3c2[C@H]1Cc1ccc(O)c(O)c1-3 [Apomorphine, reference compound] | 0.19 | 0.22 | Motor activity ([5]; 2 μmol/kg s.c.): 624 ± 51 acc. counts; central postsynaptic DA-receptor stimulation / motor response [5]: strong central postsynaptic DA-receptor stimulatory effects; counts per 30 min., apomorphine alone [6]: 513 ± 35 counts per 30 min. |
| CN1CCCC(c2cccc(O)c2)C1 (centres unmarked) [Compound 1] | 2.1 | 1.5 | – |
| CCCN1CCC(c2cccc(O)c2)C1 (centres unmarked) [Compound 3, N-propyl-30(3-hydroxyphenyl)pyrrolidine] | ~45 | ~45 | – |
| CCCCN1CCCC(c2cccc(O)c2)C1 (centres unmarked) [Compound 5, N-butyl-3-(3-hydroxphenyl)piperidine] | 1.7 | 0.7 | – |
| CCCCCN1CCCC(c2cccc(O)c2)C1 (centres unmarked) [Compound 6, N-pentyl-3-(3-hydroxyphenyl)piperidine hydrochloride] | 0.9 | 0.6 | – |
| CC(C)N1CCCC(c2cccc(O)c2)C1 (centres unmarked) [Compound 7, N-isopropyl-3-(3-hydroxphenyl)piperidine] | 0.8 | 0.7 | antagonism of the reserpine-induced syndrome [7]: No antagonism of the reserpine-induced syndrome was seen |
| C=CCN1CCCC(c2cccc(O)c2)C1 (centres unmarked) [Compound 9] | 4.2 | 4 | – |
| CCCN1CCCC(c2cccc(OC(C)=O)c2)C1 (centres unmarked) [Compound 10, N-n-Propyl-3-(3-acetoxyphenyl)piperidine hydrochloride] | 1.2 | 1.5 | – |
| CCCN1CCCC(c2cccc(OC(=O)C(C)(C)C)c2)C1 (centres unmarked) [Compound 11] | 2.2 | 1.7 | – |
| CCCN1CCCC(c2cccc(OC(=O)c3ccccc3)c2)C1 (centres unmarked) [Compound 12, N-n-Propyl-3-(3-benzoyloxyphenyl)piperidine hydrochloride] | 1.8 | 2 | – |
| OCCN1CCCC(c2cccc(O)c2)C1 (centres unmarked) [Compound 13, 2-[3-(3-Hydroxyphenyl)-piperidino]ethanol hydrochloride] | ~20 | ~20 | – |
| CN(C)CCN1CCCC(c2cccc(O)c2)C1 (centres unmarked) [Compound 14] | ~20 | ~20 | – |
| C=CCOc1cccc(C2CCCN(CCC)C2)c1 (centres unmarked) [Compound 16, N-n-Propyl-3-(3-allyloxyphenyl)piperidine hydrochloride] | < 45 | < 45 | – |
| CCCN1CCCC(c2cccc(OCc3ccccc3)c2)C1 (centres unmarked) [Compound 17, N-n-Propyl-3-(3-benzyloxyphenyl)piperidine hydrochloride] | < 45 | < 45 | – |
| CCCN1CCCC(c2cccc(OC(=O)Nc3ccccc3)c2)C1 (centres unmarked) [Compound 18, N-n-Propyl-3[3-(phenylcarbamoyloxy)phenyl]-piperidine hydrochloride] | – | – | ED50 ([4]; read-out: ED50 Limbic): < 45 µmol/kg; ED50 ([4]; read-out: ED50 Striatum): < 45 µmol/kg |
| CCCN1CCCC(c2cccc(OC(=O)c3c(C)cccc3C)c2)C1 (centres unmarked) [Compound 19, N-n-Propyl-3-[2,6-dimethylbenzoyloxy)-phenyl]piperidine hydrochloride] | < 45 | < 45 | – |
| CCCN1CCCC(c2cccc(OC(=O)c3ccc(OC(=O)C(C)(C)C)cc3)c2)C1 (centres unmarked) [Compound 20] | < 45 | < 45 | – |
| CC(C)N1CCCC(c2cccc(OC(=O)c3ccccc3)c2)C1 (centres unmarked) [Compound 21] | 0.5 | 0.5 | – |
| CCCCN1CCCC(c2cccc(OC(=O)c3ccccc3)c2)C1 (centres unmarked) [Compound 22] | < 2.7 | < 2.7 | – |
| O=C(CCCN1CCC(O)(c2ccc(Cl)cc2)CC1)c1ccc(F)cc1 [Haloperidol, reference compound] | – | – | Motor activity (DA autoreceptors): 140 ± 22 acc. counts |
| CCCN1CCCC(c2ccc(O)c(O)c2)C1 (centres unmarked) [N-n-propyl-3-(3,4-dihydroxyphenyl)piperidine, reference compound] | 9.4 | 10 | Motor activity ([5]; 100 μmol/kg s.c.): 522 ± 83 acc. counts; central postsynaptic DA-receptor stimulation / motor response [5]: strong central postsynaptic DA-receptor stimulatory effects |

From patent US4937346A, “Phenyl-azacykloalkanes” (Carlsson; Per Arvid Emil, priority 1979, dated 1990)
